Measurements as given in patent US8591878B2, “Therapeutic compounds” (Merck Sharp & Dohme Corp., priority 2008, dated 2013).

The compounds below were run on subgenomic HCV replicon in Huh-7 cells (assay: Cell-Based HCV Replication Assay (replicon, NS3 Cell-ELISA)). Conditions: Hepatitis C virus; Huh-7 cells with subgenomic HCV replicon; NS3 expression by Cell-ELISA; 96 hours incubation; read-out: Cell based HCV Replication Assay-IC50.
Parameters: species or system hepatitis C virus (HCV)
Text: Another suitable assay is the cellular Replicon or rheplisa assay described as follows:
Cell-Based HCV Replication Assay
Cell clones that stably maintain subgenomic HCV replicon were obtained by transfecting Huh-7 cells with an RNA replicon identical to I377neo/NS3-3′/wt described by V. Lohmann et al., 285 SCIENCE 110 (Jul. 2, 1999) (EMBL-GENBANK No. AJ242652), followed by selection with neomycin sulfate (G418). Viral replication was monitored by measuring the expression of the NS3 protein by an ELISA assay performed directly on cells grown in 96-well microtiter plates (Cell-ELISA) using the anti-NS3 monoclonal antibody 10E5/24 (as described in International Patent Application Publication WO 02/59321). Cells were seeded into 96 well plates at a density of 10^4 cells per well in a final volume of 0.1 ml of DMEM/10% FCS. Two hours after plating, 50 μl of DMEM/10% FCS containing a 3× concentration of inhibitor were added, cells were incubated for 96 hours and then fixed for 10 minutes with ice-cold isopropanol. Each condition was tested in duplicate and average absorbance values were used for calculations. The cells were washed twice with PBS, blocked with 5% non-fat dry milk in PBS+0.1% TRITON X-100+0.02% SDS (PBSTS) and then incubated o/n at 4° C. with the 10E5/24 mab diluted in Milk/PBSTS. After washing 5 times with PBSTS, the cells were incubated for 3 hours at room temperature with Fe-specific anti-mouse IgG conjugated to alkaline phosphatase (Sigma), diluted in Milk/PBSTS. After washing again as above, the reaction was developed with p-nitrophenyl phosphate disodium substrate (Sigma) and the absorbance at 405/620 nm read at intervals. For calculations, we used data sets where samples incubated without inhibitors had absorbance values comprised between 1 and 1.5. The inhibitor concentration that reduced by 50% the expression of NS3 (IC50) was calculated by fitting the data to the Hill equation, Fraction inhibition=1−(Ai−b)/(A0−b)=[I]^n/([I]+IC50) where: • Ai=absorbance value of HBI10 cells supplemented with the indicated inhibitor concentration. • A0=absorbance value of HBI10 cells incubated without inhibitor. • b=absorbance value of Huh-7 cells plated at the same density in the same microtiter plates and incubated without inhibitor. • n=Hill coefficient.

| SMILES | IC50 [nM] |
| --- | --- |
| C=C[C@@H]1C[C@]1(NC(=O)[C@@H]1C[C@@H]2CN1C(=O)[C@H](C1CCCCC1)NC(=O)N1CCC[C@H](CCCCc3cc4c(cc(-c5ccccc5)nc4cc3OC)O2)C1)C(=O)NS(=O)(=O)C1CC1 [Example 6, (3R,5S,8S,15S)-8-cyclohexyl-N-((1R,2S)-1-{[(cyclopropylsulfonyl)amino]carbonyl}-2-vinylcyclopropyl)-21-methoxy-7,10-dioxo-25-phenyl-2-oxa-6,9,11,24-tetraazapentacyclo [18.6.2.1^3,6.1^11,15.0^23,27] triaconta-1(27),20,22,23,25,27-hexaene-5-carboxamide] | 24 |
| C=C[C@@H]1C[C@]1(NC(=O)[C@@H]1C[C@@H]2CN1C(=O)[C@H](C1CCCCC1)NC(=O)N1CCC[C@@H](C1)OCCCc1cc3c(nccc3cc1OC)O2)C(=O)NS(=O)(=O)C1CC1 [Example 10, (3R,5S,8S,15S)-8-cyclohexyl-N-((1R,2S)-1-{[(cyclopropylsulfonyl)amino]carbonyl}-2-vinylcyclopropyl)-21-methoxy-7,10-dioxo-2,16-dioxa-6,9,11,26-tetraazapentacyclo [18.6.2.1^3,6.1^11,15.0^23,27] triaconta-1(26),20,22,24,27-pentaene-5-carboxamide] | 7 |
| CCOc1cc2c3cc(c(OC)cc3n1)/C=C/CO[C@H]1CCN(C1)C(=O)N[C@@H](C1CCCC1)C(=O)N1C[C@@H](C[C@H]1C(=O)N[C@]1(C(=O)NS(=O)(=O)C3CC3)C[C@H]1CC)O2 [Example 23, (3R,5S,8S,14S,17E)-8-cyclopentyl-N-((1R,2R)-1-{[(cyclopropylsulfonyl)amino]carbonyl}-2-ethylcyclopropyl)-24-ethoxy-20-methoxy-7,10-dioxo-2,15-dioxa-6,9,11,23-tetraazapentacyclo [17.6.2.1^3,6.1^11,14.0^22,26] nonacosa-1(25),17,19,21,23,26-hexaene-5-carboxamide] | 7 |
| C=CC1C[C@]1(NC(=O)[C@@H]1C[C@@H]2CN1C(=O)[C@H](C1CCCCC1)NC(=O)N1CCC(CC1)OCCC/C=C/c1cc3c(cc(OCC)nc3cc1OC)O2)C(=O)NS(=O)(=O)C1CC1 (stereo in doubt) [Example 32, (3R,5S,8S,19E)-8-cyclohexyl-N-((1R,2R)-1-{[(cyclopropylsulfonyl)amino]carbonyl}-2-vinylcyclopropyl)-26-ethoxy-22-methoxy-7,10-dioxo-2,15-dioxa-6,9,11,25-tetraazapentacyclo [19.6.2.2^11,14.1^3,6.0^24,28] dotriaconta-1(27),19,21,23,25,28-hexaene-5-carboxamide] | 10 |
| C=C[C@@H]1C[C@]1(NC(=O)[C@@H]1C[C@@H]2CN1C(=O)[C@H](C1CCCC1)NC(=O)N1CC[C@@H](C1)OC/C=C/c1cc3c(cc(OCC)nc3cc1OC)O2)C(=O)NS(=O)(=O)C1CC1 [Example 22, (3R,5S,8S,14S,17E)-8-cyclopentyl-N-((1R,2S)-1-{[(cyclopropylsulfonyl)amino]carbonyl}-2-vinylcyclopropyl)-24-ethoxy-20-methoxy-7,10-dioxo-2,15-dioxa-6,9,11,23-tetraazapentacyclo [17.6.2.1^3,6.1^11,14.0^22,26] nonacosa-1(25),17,19,21,23,26-hexaene-5-carboxamide] | 11 |

Same assay, conditions: Hepatitis C virus; Huh-7 replicon cells; NS3 expression by Cell-ELISA; 96 hours; read-out: Cell-based HCV Replication Assay: IC50

| SMILES | IC50 [nM] |
| --- | --- |
| C=C[C@@H]1C[C@]1(NC(=O)[C@@H]1C[C@@H]2CN1C(=O)[C@H](C1CCCCC1)NC(=O)N1CC(C1)OCC/C=C/c1cc3c(cc(OCC)nc3cc1OC)O2)C(=O)NS(=O)(=O)C1CC1 [Example 44, (3R,5S,8S,17E)-8-Cyclohexyl-N-((1R,2S)-1-{[(cyclopropylsulfonyl)amino]carbonyl}-2-vinylcyclopropyl)-24-ethoxy-20-methoxy-7,10-dioxo-2,14-dioxa-6,9,11,23-tetraazapentacyclo[17.6.2.1^3,6.1^11,13.0^22,26]nonacosa-1(25),17,19,21,23,26-hexaene-5-carboxamide] | 6 |
